Laboratory results published in patent US20060241149A1, “Chemical compounds” (priority 2002, published 2006).
Counter-ions that a name gives are not always drawn.

Legend:
TIE2 kinase = target: T1, TIE2 kinase (Homo sapiens, UniProt Q02763); assay: TIE2 kinase inhibition; assay type: biochemical
T1 construct: made in house; host or cells: baculovirus expression (insect cells)
From the text: TIE-2 Enzyme Assay (TIE2-E)
The TIE-2 enzyme assay uses the LANCE method (Wallac) and GST-TIE2, baculovirus expressed recombinant constructs of the intracellular domains of human TIE2 (amino acids 762-1104, GenBank Accession #L06139) tagged by GST). The method measures the ability of the purified enzymes to catalyse the transfer of the γ-phosphate from ATP onto tyrosine residues in a biotinylated synthetic peptide, D1-15 (biotin-C6-LEARLVAYEGWVAGKKKamide). This peptide phosphorylation is detected using the following procedure: for enzyme preactivation, GST-TIE2 is incubated for 30 mins at room temperature with 2 mM ATP, 5 mM MgCl2 and 12.5 mM DTT in 22.5 MM HEPES buffer (pH7.4). Preactivated GST-TIE2 is incubated for 30mins at room temperature in 96 well plates with 1 uM D1-15 peptide, 80 uM ATP, 10 mM MgCl2, 0.1 mg/ml BSA and the test compound (diluted from a 10 mM stock in DMSO, final DMSO concentration is 2.4%) in 1 mM HEPES (pH7.4). The reaction is stopped by the addition of EDTA (final concentration 45 mM). Streptavidin linked-APC (allophycocyanin, Molecular Probe) and Europium-labeled anti-phosphorylated tyrosine antibody (Wallac) are then added at the final concentration of 17 ug/well and 2.1 ug/well, respectively. The APC signal is measured using an ARVO multilabel counter. (Wallac Berthold Japan). The percent inhibition of activity is calculated relative to blank control wells. The concentration of test compound that inhibits 50% of activity (IC50) is interpolated using nonlinear regression (Levernberg-Marquardt) and the equation, y=Vmax (1−x/(K+x))+Y2, where “K” is equal to the IC50. The IC50 values are converted to pIC50 values, i.e., -log IC50 in Molar concentration.
TIE-2 Enzyme Assay (TIE2-E2
The TIE-2 enzyme assay uses the LANCE method (Wallac) and GST-TIE2, baculovirus-expressed recombinant constructs of the intracellular domains of human TIE2 (amino acids 762-1104, GenBank Accession #L06139) tagged by GST). The method measures the ability of the purified enzymes to catalyse the transfer of the γ-phosphate from ATP onto tyrosine residues in a biotinylated synthetic peptide, D1-15 (biotin-C6-LEARLVAYEGWVAGKKKamide). This peptide phosphorylation is detected using the following procedure: for enzyme preactivation, GST-TIE2 is incubated for 2 hours at room temperature with 80 μM ATP, 10 mM MgCl2, 0.1 mg/ml BSA, 0.01% Tween 20 and 1 mM DTT in 100 mM HEPES buffer (pH7.4). […] The APC signal is measured using an Wallac Multilabel 1420 counter. […] The percent inhibition of activity is calculated relative to blank control wells. […]
Tie2 Fluorescence Polarization Kinase Activity Assay: (TIE2-FP) […]

Raf kinase = Raf kinase inhibition; assay type: biochemical

T1 sequence (Q02763 762-1104): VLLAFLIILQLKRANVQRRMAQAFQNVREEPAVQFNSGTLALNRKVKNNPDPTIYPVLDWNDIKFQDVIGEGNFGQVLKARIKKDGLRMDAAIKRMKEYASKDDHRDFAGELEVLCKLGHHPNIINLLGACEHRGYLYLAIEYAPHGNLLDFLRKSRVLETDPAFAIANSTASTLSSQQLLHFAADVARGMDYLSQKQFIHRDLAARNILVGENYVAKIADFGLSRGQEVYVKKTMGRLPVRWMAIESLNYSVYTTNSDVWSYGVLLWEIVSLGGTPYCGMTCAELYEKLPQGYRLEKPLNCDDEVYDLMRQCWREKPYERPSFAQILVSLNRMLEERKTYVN

Compound | IC50 (TIE2 kinase) | IC50 (Raf kinase)
CNC(=O)c1cc(Oc2ccc3c(c2)CCN3C(=O)Nc2cc(C(C)(C)C)on2)ccn1 [Example 7, 5-(2-Methylcarbamoyl-pyridin-4-yloxy)-2,3-dihydro-indole-1-carboxylic acid(5-tert-butyl-isoxazol-3-yl)-amide trifluoroacetate] | < 250 nM | –
CNC(=O)c1cc(Oc2ccc3c(c2)CCN3C(=O)Nc2ccc(Cl)c(C(F)(F)F)c2)ccn1 [Example 8, 5-(2-Methylcarbamoyl-pyridin-4-yloxy)-2,3-dihydro-indole-1-carboxylic acid(4′-chloro-3′-trifluoromethyl-phenyl)-amide] | – | < 250 nM
CNC(=O)c1cc(Oc2ccc3c(c2)CCN3C(=O)Nc2cc(C(F)(F)F)cc(C(F)(F)F)c2)ccn1 [Example 6, 5-(2-Methylcarbamoyl-pyridin-4-yloxy)-2,3-dihydro-indole-1-carboxylic acid(bis-3′,5′-trifluoromethylphenyl)-amide] | < 250 nM | –

Other lines, results leading:

IC50 (TIE2 kinase) | IC50 (Raf kinase) | Compound
< 250 nM | – | CNC(=O)c1cc(Oc2ccc3c(c2)CCN3C(=O)Nc2cccc(C(F)(F)F)c2)ccn1 [Example 3, 5-(2-Methylcarbamoyl-pyridin-4-yloxy)-2,3-dihydro-indole-1-carboxylic acid(3′-trifluoromethyl-phenyl)-amide]
< 250 nM | – | CNC(=O)c1cc(Oc2ccc3c(c2)CCN3C(=O)Nc2ccc(F)c(C(F)(F)F)c2)ccn1 [Example 4, 5-(2-Methylcarbamoyl-pyridin-4-yloxy)-2,3-dihydro-indole-1-carboxylic acid(4′-fluoro-3′-trifluoromethyl-phenyl)-amide]
